Test results as given in US20230257372A1 (CHONG KUN DANG PHARMACEUTICAL CORP., priority 2020, published 2023).
Read-outs that look alike come from different tables or passages of the source.

Columns and labels:
[1] = biological target: T1, human recombinant HDAC1 (Homo sapiens, UniProt Q13547); experiment: HDAC1 enzyme activity inhibition (HDAC Fluorimetric Drug Discovery Kit); assay type: biochemical; settings: read-out: HDAC1
T1 construct: purchased Enzo Life Science, Inc. BML-SE456
How it was run: (§1)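 Fluorimetric deacetylase read-out. 5-fold compound dilutions; […] enzyme, 10 μM substrate; 30° C, 60 min; developer 30 min.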

[2] = biological target: T2, human recombinant HDAC6 (Homo sapiens, UniProt Q9UBN7); experiment: HDAC6 enzyme activity inhibition (HDAC Fluorimetric Drug Discovery Kit); assay type: biochemical
T2 construct: purchased Calbiochem Inc. 382180
T2 sequence (Q9UBN7 1-1215): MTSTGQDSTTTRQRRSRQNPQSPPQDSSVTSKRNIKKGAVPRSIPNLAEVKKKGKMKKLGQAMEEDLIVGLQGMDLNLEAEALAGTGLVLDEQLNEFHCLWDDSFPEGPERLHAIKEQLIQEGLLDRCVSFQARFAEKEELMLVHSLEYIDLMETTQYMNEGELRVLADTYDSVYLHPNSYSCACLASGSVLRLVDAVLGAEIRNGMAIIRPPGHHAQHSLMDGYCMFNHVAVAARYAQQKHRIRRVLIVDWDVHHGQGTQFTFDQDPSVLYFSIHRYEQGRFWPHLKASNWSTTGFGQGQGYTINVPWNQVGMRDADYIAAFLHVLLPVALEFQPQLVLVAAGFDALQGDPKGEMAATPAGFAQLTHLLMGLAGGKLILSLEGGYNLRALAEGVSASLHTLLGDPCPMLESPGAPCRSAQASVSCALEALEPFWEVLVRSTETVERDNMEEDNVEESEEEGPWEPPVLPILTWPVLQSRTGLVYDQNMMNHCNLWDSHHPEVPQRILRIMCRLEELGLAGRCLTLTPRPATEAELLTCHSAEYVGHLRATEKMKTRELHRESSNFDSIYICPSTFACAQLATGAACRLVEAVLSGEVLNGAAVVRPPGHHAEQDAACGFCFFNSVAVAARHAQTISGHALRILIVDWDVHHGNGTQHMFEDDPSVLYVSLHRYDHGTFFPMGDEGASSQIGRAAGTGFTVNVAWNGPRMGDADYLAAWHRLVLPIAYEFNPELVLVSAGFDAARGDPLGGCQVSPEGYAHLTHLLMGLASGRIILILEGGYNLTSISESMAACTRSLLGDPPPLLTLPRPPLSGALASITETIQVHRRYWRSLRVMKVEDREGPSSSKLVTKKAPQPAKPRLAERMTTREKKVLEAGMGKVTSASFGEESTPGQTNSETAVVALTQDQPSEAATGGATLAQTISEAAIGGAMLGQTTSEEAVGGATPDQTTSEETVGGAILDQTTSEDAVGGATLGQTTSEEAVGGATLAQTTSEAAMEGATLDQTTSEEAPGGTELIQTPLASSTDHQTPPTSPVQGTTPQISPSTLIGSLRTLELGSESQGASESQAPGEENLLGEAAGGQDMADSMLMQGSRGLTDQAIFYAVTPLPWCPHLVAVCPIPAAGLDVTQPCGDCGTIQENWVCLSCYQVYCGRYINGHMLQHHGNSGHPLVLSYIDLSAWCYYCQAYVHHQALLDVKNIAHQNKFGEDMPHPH
How it was run: as §1

[3] = human recombinant HDAC1, IC50 calculated with GraphPad Prism
[4] = human recombinant HDAC6, IC50 calculated with GraphPad Prism
[5] = human recombinant HDAC1, Fluor de Lys substrate, 30° C. 60 minutes
[6] = human recombinant HDAC6, same protocol as HDAC1

T1 sequence (Q13547 whole entry): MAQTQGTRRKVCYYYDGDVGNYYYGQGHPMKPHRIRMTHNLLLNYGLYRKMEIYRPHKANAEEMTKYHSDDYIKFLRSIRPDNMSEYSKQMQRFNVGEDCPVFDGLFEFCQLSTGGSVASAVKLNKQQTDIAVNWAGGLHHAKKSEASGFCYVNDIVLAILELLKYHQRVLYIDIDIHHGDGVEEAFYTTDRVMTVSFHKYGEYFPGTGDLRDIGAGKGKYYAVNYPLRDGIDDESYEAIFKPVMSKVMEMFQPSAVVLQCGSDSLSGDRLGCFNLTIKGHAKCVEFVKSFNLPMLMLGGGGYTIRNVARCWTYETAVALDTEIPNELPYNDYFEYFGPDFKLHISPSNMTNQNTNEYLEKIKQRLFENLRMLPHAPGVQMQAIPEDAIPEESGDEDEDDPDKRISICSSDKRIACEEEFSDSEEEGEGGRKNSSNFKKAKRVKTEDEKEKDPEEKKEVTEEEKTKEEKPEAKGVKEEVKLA

Row | SMILES | IC50 [1, 3] | HDAC6 selectivity (fold) ([2]; HDAC1 IC50 / HDAC6 IC50) | IC50 [2, 4] | IC50 [1, 5] | HDAC6 selectivity (fold) ([2]; HDAC6 over HDAC1) | IC50 [2, 6]
1 | CC(C)N1CCN(Cc2cccc(-c3cn(Cc4ccc(-c5nnc(C(F)F)o5)cc4F)nn3)c2)CC1 [Compound 4408] | > 50 µM | 970 fold | 0.0515 µM |  |  | 
2 | Cc1ccncc1-c1cn(Cc2ccc(-c3nnc(C(F)F)o3)cn2)nn1 [Compound 4181, 2-(difluoromethyl)-5-(6-((4-(4-methylpyridin-3-yl)-1H-1,2,3-triazol-1-yl)methyl)pyridin-3-yl)-1,3,4-oxadiazole] | > 50 µM | 1400 fold | 0.0357 µM |  |  | 
3 | CCC(=O)N1CCN(c2cccc(-c3cn(Cc4ccc(-c5nnc(C(F)F)o5)cc4)nn3)c2)CC1 [Compound 4372, 1-(4-(3-(1-(4-(5-(difluoromethyl)-1,3,4-oxadiazol-2-yl)benzyl)-1H-1,2,3-triazol-4-yl)phenyl)piperazin-1-yl)propan-1-one] | > 50 µM | 724 fold | 0.069 µM |  |  | 
4 | FC(F)c1nnc(-c2ccc(Cn3cc(-c4ccc5c(c4)CN(C4CCC4)CC5)nn3)nc2)o1 [Compound 4212, 2-(6-((4-(2-cyclobutyl-1,2,3,4-tetrahydroisoquinolin-7-yl)-1H-1,2,3-triazol-1-yl)methyl)pyridin-3-yl)-5-(difluoromethyl)-1,3,4-oxadiazole] | > 50 µM | 1602 fold | 0.0312 µM |  |  | 
5 | O=C(O)c1ccc(-c2cn(Cc3ccc(-c4nnc(C(F)F)o4)cc3)nn2)cc1 [Compound 3731, 4-(1-(4-(5-(difluoromethyl)-1,3,4-oxadiazol-2-yl)benzyl)-1H-1,2,3-triazol-4-yl)benzoic acid] | > 50 µM | 29 fold | 1.72 µM |  |  | 
6 | FC(F)c1nnc(-c2ccc(Cn3cc(-c4ccc5[nH]cnc5c4)nn3)nc2)o1 [Compound 3843, 2-(6-((4-(1H-benzo[d]imidazol-5-yl)-1H-1,2,3-triazol-1-yl)methyl)pyridin-3-yl)-5-(difluoromethyl)-1,3,4-oxadiazole] | > 50 µM | 5952 fold | 0.0084 µM |  |  | 
7 | CC(C)(C)OC(=O)N1CCC(c2cn(Cc3ccc(-c4nnc(C(F)F)o4)cc3F)nn2)CC1 [Compound 3735, Tert-butyl 4-(1-(4-(5-(difluoromethyl)-1,3,4-oxadiazol-2-yl)-2-fluorobenzyl)-1H-1,2,3-triazol-4-yl)piperidin-1-carboxylate] | > 50 µM | 320 fold | 0.156 µM |  |  | 
8 | OC1(c2cn(Cc3ccc(-c4nnc(C(F)F)o4)cc3F)nn2)COC1 [Compound 4278, 3-(1-(4-(5-(difluoromethyl)-1,3,4-oxadiazol-2-yl)-2-fluorobenzyl)-1H-1,2,3-triazol-4-yl)oxetan-3-ol] | > 50 µM | 160 fold | 0.311 µM |  |  | 
9 | FC(F)c1nnc(-c2ccc(Cn3cc(-c4ccc(N5CCOCC5)cc4)nn3)nc2)o1 [Compound 4105, 4-(4-(1-((5-(5-(difluoromethyl)-1,3,4-oxadiazol-2-yl)pyridin-2-yl)methyl)-1H-1,2,3-triazol-4-yl)phenyl)morpholin] | 34 µM | 979 fold | 0.0347 µM |  |  | 
10 | FC(F)c1nnc(-c2ccc(Cn3cc(-c4ccc(Br)nc4)nn3)nc2)o1 [Compound 4183, 2-(6-((4-(6-bromopyridin-3-yl)-1H-1,2,3-triazol-1-yl)methyl)pyridin-3-yl)-5-(difluoromethyl)-1,3,4-oxadiazole] | > 50 µM | 896 fold | 0.0558 µM |  |  | 

Next, values leading:

Row | IC50 [1, 3] | HDAC6 selectivity (fold) ([2]; HDAC1 IC50 / HDAC6 IC50) | IC50 [2, 4] | IC50 [1, 5] | HDAC6 selectivity (fold) ([2]; HDAC6 over HDAC1) | IC50 [2, 6] | SMILES
11 |  |  |  | > 50 µM | 388 fold | 0.129 µM | C[C@@H]1CN(c2cccc(-c3cn(Cc4ncc(-c5nnc(C(F)F)o5)cc4F)nn3)c2)C[C@H](C)N1 [Compound 18893, 2-(difluoromethyl)-5-(6-((4-(3-((3R,5S)-3,5-dimethylpiperazin-1-yl)phenyl)-1H-1,2,3-triazol-1-yl)methyl)-5-fluoropyridin-3-yl)-1,3,4-oxadiazole]
12 |  |  |  | > 50 µM | 2358 fold | 0.0212 µM | CN(C)C1CCN(Cc2ccc(-c3cn(Cc4ccc(-c5nnc(C(F)F)o5)cn4)nn3)cc2)CC1 [Compound 4564, 1-(4-(1-((5-(5-(difluoromethyl)-1,3,4-oxadiazol-2-yl)pyridin-2-yl)methyl)-1H-1,2,3-triazol-4-yl)benzyl)-N,N-dimethylpiperidin-4-amine]
13 |  |  |  | > 50 µM | 897 fold | 0.0557 µM | Fc1cc(-c2nnc(C(F)F)o2)ccc1Cn1cc(-c2ccc(CN3CC[C@@H](F)C3)nc2)nn1 [Compound 17774, (R)-2-(difluoromethyl)-5-(3-fluoro-4-((4-(6-((3-fluoropyrrolidin-1-yl)methyl)pyridin-3-yl)-1H-1,2,3-triazol-1-yl)methyl)phenyl)-1,3,4-oxadiazole]
14 |  |  |  | > 50 µM | 782 fold | 0.0639 µM | C[C@@H]1CN(c2cccc(-c3cn(Cc4ncc(-c5nnc(C(F)F)o5)cc4F)nn3)c2)C[C@H](C)N1C [Compound 18961, 2-(difluoromethyl)-5-(5-fluoro-6-((4-(3-((3R,5S)-3,4,5-trimethylpiperazin-1-yl)phenyl)-1H-1,2,3-triazol-1-yl)methyl)pyridin-3-yl)-1,3,4-oxadiazole]
15 |  |  |  | > 50 µM | 1547 fold | 0.0323 µM | Fc1cc(-c2nnc(C(F)F)o2)ccc1Cn1cc(-c2ccc(CN3CCCC3)s2)nn1 [Compound 17913, 2-(difluoromethyl)-5-(3-fluoro-4-((4-(5-(pyrrolidin-1-ylmethyl)thiophen-2-yl)-1H-1,2,3-triazol-1-yl)methyl)phenyl)-1,3,4-oxadiazole]
16 |  |  |  | > 50 µM | 6024 fold | 0.0083 µM | FC(F)c1nnc(-c2ccc(Cn3cc(-c4ccc(CNC5CCC5)cc4)nn3)nc2)o1 [Compound 4565, N-(4-(1-((5-(5-(difluoromethyl)-1,3,4-oxadiazol-2-yl)pyridin-2-yl)methyl)-1H-1,2,3-triazol-4-yl)benzyl)cyclobutanamine]
17 |  |  |  | > 50 µM | 225 fold | 0.222 µM | Fc1cc(-c2nnc(C(F)F)o2)ccc1Cn1cc(-c2ccccc2CN2CC3(COC3)C2)nn1 [Compound 4586, 6-(2-(1-(4-(5-(difluoromethyl)-1,3,4-oxadiazol-2-yl)-2-fluorobenzyl)-1H-1,2,3-triazol-4-yl)benzyl)-2-oxa-6-azaspiro[3.3]heptane]
18 | > 50 µM | 2392 fold | 0.0209 µM |  |  |  | CCCN1CCC(Nc2cccc(-c3cn(Cc4ccc(-c5nnc(C(F)F)o5)cc4F)nn3)c2F)CC1 [Compound 4434, N-(3-(1-(4-(5-(difluoromethyl)-1,3,4-oxadiazol-2-yl)-2-fluorobenzyl)-1H-1,2,3-triazol-4-yl)-2-fluorophenyl)-1-propylpiperidin-4-amine]
19 |  |  |  | > 50 µM | 1333 fold | 0.0375 µM | CN1CC(NCc2ccc(-c3cn(Cc4ccc(-c5nnc(C(F)F)o5)cn4)nn3)cc2)C1 [Compound 4567, N-(4-(1-((5-(5-(difluoromethyl)-1,3,4-oxadiazol-2-yl)pyridin-2-yl)methyl)-1H-1,2,3-triazol-4-yl)benzyl)-1-methylazetidin-3-amine]
20 |  |  |  | > 50 µM | 1256 fold | 0.0398 µM | Fc1cc(-c2nnc(C(F)F)o2)ccc1Cn1cc(-c2cccc(N3CCN(C4CCC4)CC3)c2F)nn1 [Compound 4579, 2-(4-((4-(3-(4-cyclobutylpiperazin-1-yl)-2-fluorophenyl)-1H-1,2,3-triazol-1-yl)methyl)-3-fluorophenyl)-5-(difluoromethyl)-1,3,4-oxadiazole]
